The results in this text go back to ChEMBL document CHEMBL1146484, “Current developments in the discovery and design of new drug candidates from plant natural product leads” (J Nat Prod, 2004).

The target of data set [1] is DNA topoisomerase 2-alpha (Homo sapiens) (UniProt P11388). The data set can be described thus: Inhibition of topoisomerase 2.
The test system of another data set is CAKI-1. The experiment in a line: Cytotoxicity against human Caki1 cells. As to conditions: read-out: ED50 (the source's name). It counts as functional.
In the next data set the test system is MCF7. The data set can be described thus: Cytotoxicity against human MCF7 cells. It counts as functional. As to conditions: for EC50: read-out: ED50 (the source's name).
Data set [2] deals with Human immunodeficiency virus. The data set can be described thus: Antiviral activity against HIV. It counts as functional, organism-based. As to conditions: Human immunodeficiency virus 1.
Data set [3] in a line: Cytotoxicity against human NCI60 cells. It counts as functional. Particulars: for TGI: read-out: pGI100 (converted).
Data set [4] can be described thus: Inhibition of tubulin polymerization.
Data set [5] can be described thus: Cytotoxicity against human melanoma cells. It counts as functional. Particulars: Melanoma cell.
Data set [6] in a line: Cytotoxicity against human renal cancer cells. It counts as functional. Particulars: Cancer cell lines.
The subject of a further data set is SK-MEL-2. The experiment in a line: Cytotoxicity against human SK-MEL-2 cells. As to conditions: read-out: ED50 (the source's name). It counts as functional.
For a further data set, the system named is A549. The data set can be described thus: Cytotoxicity against human A549 cells. It counts as functional. As to conditions: read-out: ED50 (the source's name).
Another data set has as its system HCT-8. The data set can be described thus: Cytotoxicity against human HCT8 cells. It counts as functional. As to conditions: read-out: ED50 (the source's name).
The subject of the next data set is KB. The data set can be described thus: Cytotoxicity against human KB cells. As to conditions: for EC50: read-out: ED50 (the source's name); for pIC50: read-out: ID50 (the source's name); for CC50: read-out: LD50 (the source's name). It counts as functional.
For the next data set, the system named is RPMI-7951. The experiment in a line: Cytotoxicity against human RPMI7951 cells. It counts as functional. As to conditions: read-out: ED50 (the source's name).
For a further data set, the system named is Mus musculus. The experiment in a line: Toxicity in ip dosed nude mouse. It counts as organism-based. As to conditions: in vivo.
Data set [7] has as its target DNA topoisomerase 2-alpha (Homo sapiens) (UniProt P11388). The experiment in a line: Inhibition of human DNA topoisomerase 2.
For data set [8] the target is unchanged. The data set can be described thus: Inhibition of human DNA topoisomerase 2 assessed as DNA cleavage at 20 uM.
Another data set has as its system MOLT-4. The data set can be described thus: Cytotoxicity against human MOLT4 cells. It counts as functional.

pEC50, pIC50: −log10 of the molar value. Values after ≈ are worked out from the molar mass of the structure shown. Active and inactive are the calls of the source. The calls are words filed in the database; no cut-off is given here.

Chain of DNA topoisomerase 2-alpha (Homo sapiens) (P11388 whole entry): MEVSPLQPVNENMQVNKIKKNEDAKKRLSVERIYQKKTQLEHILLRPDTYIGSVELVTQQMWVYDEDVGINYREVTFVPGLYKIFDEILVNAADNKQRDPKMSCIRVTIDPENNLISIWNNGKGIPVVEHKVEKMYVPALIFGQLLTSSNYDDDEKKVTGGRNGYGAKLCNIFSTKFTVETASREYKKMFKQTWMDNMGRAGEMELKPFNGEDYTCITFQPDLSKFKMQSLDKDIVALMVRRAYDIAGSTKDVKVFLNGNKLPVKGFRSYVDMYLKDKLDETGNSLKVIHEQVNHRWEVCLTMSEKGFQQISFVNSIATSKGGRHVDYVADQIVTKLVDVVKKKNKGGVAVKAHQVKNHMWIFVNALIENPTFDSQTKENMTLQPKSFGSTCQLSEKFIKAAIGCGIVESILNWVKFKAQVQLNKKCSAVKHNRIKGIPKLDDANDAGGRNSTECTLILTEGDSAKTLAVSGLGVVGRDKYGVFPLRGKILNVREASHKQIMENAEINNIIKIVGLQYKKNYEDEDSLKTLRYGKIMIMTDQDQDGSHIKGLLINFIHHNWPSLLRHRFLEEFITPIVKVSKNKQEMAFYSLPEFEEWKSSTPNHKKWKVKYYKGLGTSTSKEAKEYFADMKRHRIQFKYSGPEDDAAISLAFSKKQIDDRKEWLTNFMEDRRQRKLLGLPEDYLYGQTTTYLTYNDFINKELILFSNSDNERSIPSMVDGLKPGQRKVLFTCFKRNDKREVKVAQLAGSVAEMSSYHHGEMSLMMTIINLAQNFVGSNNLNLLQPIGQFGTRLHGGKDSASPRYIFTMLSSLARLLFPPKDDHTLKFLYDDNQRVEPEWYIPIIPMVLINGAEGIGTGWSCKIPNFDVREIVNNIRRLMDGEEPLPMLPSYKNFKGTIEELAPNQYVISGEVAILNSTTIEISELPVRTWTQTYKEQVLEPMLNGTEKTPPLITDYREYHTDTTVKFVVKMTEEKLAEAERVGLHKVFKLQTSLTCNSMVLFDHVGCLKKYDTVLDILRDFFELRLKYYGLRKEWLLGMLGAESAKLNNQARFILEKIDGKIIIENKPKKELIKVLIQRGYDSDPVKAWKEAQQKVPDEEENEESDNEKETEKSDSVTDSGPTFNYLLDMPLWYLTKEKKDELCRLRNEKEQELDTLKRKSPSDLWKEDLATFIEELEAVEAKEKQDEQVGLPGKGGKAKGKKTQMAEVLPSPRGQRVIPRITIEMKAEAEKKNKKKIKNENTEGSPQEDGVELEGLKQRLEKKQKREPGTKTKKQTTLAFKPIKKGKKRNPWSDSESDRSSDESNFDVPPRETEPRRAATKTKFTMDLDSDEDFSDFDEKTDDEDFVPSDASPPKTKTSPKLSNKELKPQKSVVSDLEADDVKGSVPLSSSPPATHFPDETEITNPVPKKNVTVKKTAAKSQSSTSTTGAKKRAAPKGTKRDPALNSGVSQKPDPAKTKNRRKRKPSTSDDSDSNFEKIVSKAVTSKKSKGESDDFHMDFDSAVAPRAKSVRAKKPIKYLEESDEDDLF

With `CC(=O)N[C@H]1CCc2cc(O)c(O)c(O)c2-c2ccc(NC(=O)c3ccc(Cl)cc3)c(=O)cc21`, the outcome in data set [1] was Active. Also, the EC50 was determined as 0.98 µg/mL (≈ 2.04 µM) with CAKI-1 and 0.48 µg/mL (≈ 0.998 µM) in the data set with MCF7.
Consider `CC1(C)CC[C@]2(C(=O)O)CC[C@]3(C)C(=CC[C@@H]4[C@@]5(C)CC[C@H](O)C(C)(C)[C@@H]5CC[C@]43C)[C@@H]2C1` [OLEANOLIC_ACID], for which the EC50 in data set [2] turned out to be 1.7 µg/mL.
Regarding `Cc1ccc2c(=O)cc(-c3cccc(F)c3)[nH]c2n1`, in data set [3], the GI50 was 269 nM and the TGI was 72400 nM.
`COc1cc2c(c(OC)c1OC)-c1ccc(SC)c(=O)cc1[C@@H](OC(C)=O)CC2` showed a pIC50 in data set [4] of 6.25.
On to `CC(=O)O[C@@H]1[C@H](OC(=O)CC(C)C)c2c(ccc3ccc(=O)oc23)OC1(C)C` [SUKSDORFIN], for which the pEC50 in data set [2] is 5.89.
Regarding `COc1cccc(-c2cc(=O)c3ccc(C)nc3[nH]2)c1`, in data set [3], the GI50 is 269 nM and the TGI was 72400 nM.
In the case of `CC1(C)Oc2ccc3ccc(=O)oc3c2[C@@H](OC(=O)C23CCC(C)(C(=O)O2)C3(C)C)[C@H]1OC(=O)C12CCC(C)(C(=O)O1)C2(C)C` (stereo partly drawn), in data set [2], the pEC50 is 9.40.
For `CC1(C)C=C2[C@H]3CC[C@@H]4[C@@]5(C)CCC(=O)C(C)(C)[C@@H]5CC[C@@]4(C)[C@]3(C)CC[C@@]2(C(=O)O)CC1` [MORONIC ACID], the EC50 in data set [2] is below 0.1 µg/mL.
For the molecule `Cc1cnc2[nH]c(-c3cccc(Cl)c3)cc(=O)c2c1`, in data set [3], the 50% growth inhibitory concentration (GI50) is 269 nM and the TGI is 72400 nM.
As to `O=c1cc(-c2ccccc2F)[nH]c2ccc(N3CCCC3)cc12`, the results for the GI50 in data set [5] and in data set [6] were at most 10 nM and 22.4 nM, respectively.
The molecule `COc1c2c(cc3c1-c1c(cc4c(c1OC)OCO4)C[C@H](C)[C@H](C)C3)OCO2` [SCHISANDRIN C] came in with an EC50 in data set [2] of 1.2 µg/mL.
On to `C=C(C)[C@@H]1CC[C@]2(C(=O)O)CC[C@]3(C)[C@H](CC[C@@H]4[C@@]5(C)CC[C@H](OC(=O)CC(C)(C)C(=O)O)C(C)(C)[C@@H]5CC[C@]43C)[C@@H]12` [BEVIRIMAT], for which the pEC50 in [2] is above 9.46.
The molecule `COc1cc2c(c(OC)c1OC)-c1ccc(SC)c(=O)cc1[C@@H](OC(=O)c1ccncc1)CC2` showed a pIC50 in data set [4] of 6.25.
In data set [2], `CC1(C)CC[C@]2(C(=O)O)CC[C@]3(C)C(=CC[C@@H]4[C@@]5(C)CC[C@H](OC(=O)CC(C)(C)C(=O)O)C(C)(C)[C@@H]5CC[C@]43C)[C@H]2C1` registered an EC50 of 0.0039 µg/mL.
In turn, `COc1cc2c(c(OC)c1OC)-c1ccc(OC)c(=O)cc1[C@@H](NC(C)=O)CC2` [COLCHICINE] gave a pIC50 in data set [4] of 6.19.
On to `COc1cccc([C@@H]2CC(=O)c3cc(N4CCCC4)ccc3N2)c1`, for which the EC50 in the data set with CAKI-1, with MCF7, in the data set on SK-MEL-2, in the data set on A549, with HCT-8 and with KB was 0.008 µg/mL (≈ 0.0248 µM) in each case.
Regarding `COC(=O)[C@@]12OC[C@]34[C@H](OC(=O)C[C@@H]13)[C@H](OC(=O)C=C(C)C)[C@H]1C(C)=C(O[C@@H]3O[C@H](CO)[C@@H](O)[C@H](O)[C@H]3O)C(=O)C[C@]1(C)[C@H]4[C@@H](O)[C@@H]2O` [BRUCEOSIDE C], the EC50 in the data set on RPMI-7951 and with KB was below 0.1 µg/mL in each case.
`COc1cc2c(c(OC)c1OC)-c1ccc(SC)c(=O)cc1C(=O)CC2` [THIOCOLCHICONE] had a pIC50 in data set [4] of 6.25.
`CC[C@@]1(O)C(=O)OCc2c1cc1n(c2=O)Cc2c-1nc1ccccc1c2/C=N/c1ccccc1N[C@@H]1c2cc3c(cc2[C@@H](c2cc(OC)c(O)c(OC)c2)[C@H]2C(=O)OC[C@@H]21)OCO3`: the 50% lethal dose (LD50) in the data set with Mus musculus is on record as above 50 mg/kg/day.
In [2], `COc1cc2c(c(OC)c1OC)-c1c(cc3c(c1OC)OCO3)C[C@@H](C)[C@@H](C)C2` [KADSURANIN] registered an EC50 of 0.8 µg/mL.
Consider `Cc1cnc2[nH]c(-c3cccc(F)c3)cc(=O)c2c1`, for which, in [3], the GI50 was 269 nM and the TGI was 72400 nM.
In data set [7], `COc1cc([C@@H]2c3cc4c(cc3[C@@H](Nc3ccccc3)[C@H]3COC(=O)[C@H]23)OCO4)cc(OC)c1O` returned an ID50 of 50000 nM. For the same molecule, in data set [8], the inhibition turned out to be 125%.
`COc1cc([C@@H]2c3cc4c(cc3[C@@H](Nc3ccc(NC(=O)c5cc([N+](=O)[O-])cn5C)cc3)[C@H]3COC(=O)[C@H]23)OCO4)cc(OC)c1O` came in with an IC100 in [1] of 12.5 µM. The GI50 in the data set on MCF7 is below 10 nM. The molecule further showed a GI50 with MOLT-4 below 10 nM. In addition, in the data set with KB, the pIC50 was 7.40 and the CC50 is 150 nM.
In turn, `Cc1cc(=O)oc2c3c(ccc12)OC(C)(C)[C@H](OC(=O)C12CCC(C)(C(=O)O1)C2(C)C)[C@@H]3OC(=O)C12CCC(C)(C(=O)O1)C2(C)C` (stereo partly drawn) showed a pEC50 in [2] of 12.80.
For `COc1c2c(cc3c1-c1c(cc4c(c1OC)OCO4)[C@H](OC(=O)c1ccccc1)[C@@](C)(O)[C@@H](C)C3)OCO2` [SCHISANTHERIN D], the EC50 in [2] came to 0.5 µg/mL.
Turning to `COc1cc2c(c(OC)c1OC)-c1c(cc3c(c1OC)OCO3)[C@H](OC(=O)c1ccccc1)[C@@](C)(O)[C@@H](C)C2` [GOMISIN G], in [2], the EC50 amounted to 0.006 µg/mL.
Turning to `CNc1ccc2c(cc1=O)[C@@H](NC(C)=O)CCc1cc(O)c(O)c(O)c1-2`, the outcome in [1] was Active. For the same molecule, the figures for the EC50 in the data set with CAKI-1 and with MCF7 were 0.72 µg/mL (≈ 2.02 µM) and 0.36 µg/mL (≈ 1.01 µM), respectively.
In turn, `COc1cc2c(c(OC)c1OC)-c1ccc(SC)c(=O)cc1[C@@H](O)CC2` had a pIC50 in [4] of 6.25.
`COc1cc([C@@H]2c3cc4c(cc3[C@@H](O[C@@H]3O[C@@H]5CO[C@@H](C)O[C@H]5[C@H](O)[C@H]3O)[C@H]3COC(=O)[C@H]23)OCO4)cc(OC)c1O` [ETOPOSIDE] gave an IC100 in data set [1] of 100 µM. Moreover, in the data set with KB, the pIC50 was 6.70 and the CC50 turned out to be 3000 nM.
Turning to `COc1cc([C@@H]2c3cc4c(cc3[C@@H](Nc3ccc(F)cc3)[C@H]3COC(=O)[C@H]23)OCO4)cc(OC)c1O`, the ID50 in [7] came out at 50000 nM. Moreover, in data set [8], the inhibition was 139%.

As usually defined, the GI50 is the concentration that inhibits growth by half. A high value points to less potent growth inhibition. As a reminder, the pEC50 is the EC50 on a negative log10 scale, so that one unit is a factor of ten. Higher therefore signals a small EC50. The term LD50 denotes the dose at which mortality reaches 50%. The low end stands for greater toxicity, the high end for lower toxicity. For orientation: inhibition means the drop in the measured response relative to a control, in per cent.
